# What was measured:
# E-cadherin = E-cadherin proteolysis in A431 cells during STS-induced apoptosis (Western blot, C36 antibody); type: cell-based, human; conditions: then STS 6 hours
# Description: FIG. 11 provides digitized images and graphs showing that apoptosis enhances γ-secretase activity and levels of γ-secretase complex proteins. FIG. 11a: Apoptosis was induced in CAB, CHO-CC99/PS1 and CHO-APP 751/PS1 by STS treatment for 6 hours with or without zVAD (100 μM). Secreted Aβ1−total was measured by ELISA. […] Each bar represents the mean and SD of quadruplicate determinations. FIG. 11b: Western blot analysis with the antibody, A8717, detected endogenous APP-FL and overexpressed C99 in CHO-CC99/PS1cells, while overexpressed APP-FL and C83 were detected in CHO-APP751/PS1 cells. FIG. 11c: A431 human epithelial cells were pre-incubated for 30 min in the absence (−) or presence (+) of zVAD-FMK (100 μM), L-685,458 (0.5 μM) or GM6001 (2.5 μM). Cells were then treated with STS for 6 hours to induce apoptosis, and cell extracts were probed with anti-E-cadherin C36 antibody. FIG. 11d: Protein levels of γ-secretase complex components were monitored by Western blotting employing the anti-nicastrin, Ab14, PNT2, H2D2 antibodies. Densitometry analysis was performed using NIH image software. Each bar represents the mean and SEM of at least three experiments. FIG. 11e: Nicastrin was transiently transfected in the A431 cells. Western blot analysis for E-cadherin and γ-secretase complex component was performed as in FIG. 11c and FIG. 11d β-tubulin was used as loading control.
# To confirm that apoptosis/caspase activation increases γ-secretase activity, we next examined the proteolysis of E-cadherin, another γ-secretase substrate (Marambaud, P. et al., Embo J21, 1948-56 (2002)) during apoptosis. We confirmed that caspase activation enhanced the production of E-Cad/CTF1 (Steinhusen, U. et al., J Biol Chem 276, 4972-80 (2001)), E-Cad/CTF2 (Marambaud, P. et al., 2002) (˜2- and 3-fold increase by densitometry analysis, respectively), and generated E-Cad/CTF3 (Marambaud, P. et al., 2002) (FIG. 11c). […]
# proteasome = assay: Proteasome inhibition: BACE and nicastrin protein levels by Western blot in H4 cells; type: cell-based, human
# Description: Densitometric analysis was performed with NIH image and reported in bar graphs (FIG. 8B).
# [1] = tested on: Aβ production in CHO cells overexpressing APP751 and PS1 WT; assay: Secreted Aβ ELISA in CHO cells overexpressing APP751 and PS1 during induced apoptosis; type: cell-based, Chinese Hamster; conditions: etoposide 100 μg/mL, 12 hrs
# Description: We examined Aβ generation induced by apoptosis in CHO cell lines. We used CHO cell lines stably overexpressing both APP751 and PS1 WT. For the induction of apoptosis, we used 1 μM staurosporine (STS) in serum free media. Secreted Aβ was measured in the conditioned media of cells treated with STS for 6 hrs using a sensitive ELISA assay [courtesy of Dr. Dennis Selkoe; M. S. Wolfe et al., Nature 398, 513-7 (1999)].
# Treatment with either STS for 6 hrs or etoposide for 12 hrs induced from 10 to 20% of cell death assayed by MTT assay, which is a colorimetric short-term suspension culture assay in which the yellow tetrazolium salt (MTT) is reduced in metabolically active cells to form insoluble purple formazan crystals, which are solubilized by the addition of a detergent.
# Chinese Hamster Ovary (CHO) cells expressing APP751 and BACE (CAB), CHO cells expressing full-length APP and wild-type PS1 (CHO-APP751/PS1) or expressing C99 and wild-type PS1 (CHO-CC99/PS1), H4 human neuroglioma cells expressing APP751 (H4-APP751), mouse embryonic fibroblast (MEF), embryonic stem (ES) cells, and human epithelial A431 cells were grown as described previously (Marambaud, P. et al., Embo J 21, 1948-56 (2002); Cai, H. et al., Nat Neurosci 4, 233-4 (2001); Sato, N. et al., Nat Cell Biol 2, 863-70 (2000); Puglielli, L., Ellis, B. C., Saunders, A. J. & Kovacs, D. M., J Biol Chem 278, 19777-83 (2003); Wolfe, M. S. et al., Nature 398, 513-7 (1999)). For the induction of apoptosis, we used staurosporine or etoposide (Calbiochem (EMD Biosciences, San Diego, Calif.)). For Aβ measurements, cells were seeded at the density of 0.5×10^6 cells per well in 6 well plates. After 48 hours, cells were treated with either STS (1 μM) for 6 hours. […] For time-course experiments, cells were seeded at the density of 2×10^6 cells per 100 mm dish and treated with STS (1 μM) or etoposide (100 μg/mL). At different time points (0, 3, 6, 9, 12 and 24 hours), the cells were scraped, centrifuged and then lysed in buffer containing 1% NP40. Western blot analysis was performed as previously described (Tesco, G., Koh, Y. H. & Tanzi, R. E., J Biol Chem 278, 46074-80 (2003)). Densitometry analysis was performed on a Macintosh computer using the public domain NIH Image program (developed at the U.S. National Institutes of Health and available on the Internet at http://rsb.info.nih.gov/nih-image/).
# Secreted Aβ1-total was measured in the conditioned media of untreated cells or of cells treated with STS or STS plus zVAD using a sensitive ELISA (Wolfe, M. S. et al., Nature 398, 513-7 (1999). At least three different experiments were carried out and each experiment was performed at least in triplicate.
# BACE = BACE protein levels by Western blot and densitometry in CAB cells; type: cell-based, Chinese Hamster; conditions: etoposide (ETO) treatment, CAB cells
# Description: Chinese Hamster Ovary (CHO) cells expressing APP751 and BACE (CAB), CHO cells expressing full-length APP and wild-type PS1 (CHO-APP751/PS1) or expressing C99 and wild-type PS1 (CHO-CC99/PS1), H4 human neuroglioma cells expressing APP751 (H4-APP751), mouse embryonic fibroblast (MEF), embryonic stem (ES) cells, and human epithelial A431 cells were grown as described previously (Marambaud, P. et al., Embo J 21, 1948-56 (2002); Cai, H. et al., Nat Neurosci 4, 233-4 (2001); Sato, N. et al., Nat Cell Biol 2, 863-70 (2000); Puglielli, L., Ellis, B. C., Saunders, A. J. & Kovacs, D. M., J Biol Chem 278, 19777-83 (2003); Wolfe, M. S. et al., Nature 398, 513-7 (1999)). For the induction of apoptosis, we used staurosporine or etoposide (Calbiochem (EMD Biosciences, San Diego, Calif.)). For Aβ measurements, cells were seeded at the density of 0.5×10^6 cells per well in 6 well plates. After 48 hours, cells were treated with either STS (1 μM) for 6 hours. In order to inhibit caspase activation a sister plate of cells was pre-treated with zVAD ([…], Enzyme Systems Products) for 1 hour before STS treatment. For time-course experiments, cells were seeded at the density of 2×10^6 cells per 100 mm dish and treated with STS (1 μM) or etoposide (100 μg/mL). At different time points (0, 3, 6, 9, 12 and 24 hours), the cells were scraped, centrifuged and then lysed in buffer containing 1% NP40. Western blot analysis was performed as previously described (Tesco, G., Koh, Y. H. & Tanzi, R. E., J Biol Chem 278, 46074-80 (2003)). Densitometry analysis was performed on a Macintosh computer using the public domain NIH Image program (developed at the U.S. National Institutes of Health and available on the Internet at http://rsb.info.nih.gov/nih-image/).
# It has been previously shown that overexpression of BACE enhances β-secretase cleavage of APP leading to the accumulation of intracellular C99 (Vassar, R. et al., Science 286, 735-41 (1999)). We first asked whether apoptosis/caspase activation leads to accumulation of C99 owing to increased β-secretase activity.
smiles,measurement,setting,value
"CC(C)C[C@H](NC(=O)[C@H](Cc1ccccc1)C[C@@H](O)[C@H](Cc1ccccc1)NC(=O)OC(C)(C)C)C(=O)N[C@@H](Cc1ccccc1)C(N)=O [L-685,458]",generation of E-Cad/CTF2,"E-cadherin; L-685,458 0.5 μM pre-incubated 30 min",inhibited
"CC(=O)N[C@@H](CSC(=O)[C@]1([C@@H](O)C(C)C)NC(=O)[C@H](C)[C@@H]1O)C(=O)O [Lactacystin, lactacystin]",protein levels of nicastrin,"proteasome; Lactacystin 10 μM for 24 hrs, medium containing 10% serum",increased
same,BACE full length and BACE-CTF levels,"proteasome; Lactacystin treatment, H4 cells",did not affect
CNC(=O)[C@H](Cc1c[nH]c2ccccc12)NC(=O)[C@@H](CC(=O)NO)CC(C)C [GM6001],generation of E-Cad/CTF1,E-cadherin; GM6001 2.5 μM pre-incubated 30 min,inhibited
COc1cc([C@@H]2c3cc4c(cc3[C@@H](O[C@@H]3O[C@@H]5CO[C@@H](C)O[C@H]5[C@H](O)[C@H]3O)[C@H]3COC(=O)[C@H]23)OCO4)cc(OC)c1O [etoposide],Secreted Aβ1-42,[1],increased
same,Secreted Aβtotal,[1],increased
same,BACE protein levels,BACE,increase

# From patent US7326540B2, “Methods for identifying compounds that modulate stabilization of secretase-associated proteins” (priority 2003, dated 2008)
